We go through two molecules from PMC13267113 (npj Drug Discovery, 2025).

Values after ≈ are worked out from the molar mass of the structure shown.

On the set-up of series [1]: method as in PMID 26437376, PMID 24041792. Particulars: cited from earlier work.
For another series, the system named is SCARB1. The arrangement: method as in PMID 19815817. The settings on record: previous in vivo mouse studies; cited from earlier work.
The subject of a further series is HeLa (human, cervix). Put plainly: MTT cytotoxicity HeLa. The format is cell-based. The settings on record: 72 h, n = 3. The method, then:
(§1) All cell types were cultivated at 37 °C with 5% CO2. HepG2, HEK293, HCT116, CHO-K1, HeLa-CCL-2 and Huh-7.5 were purchased from ATCC. The respective cell media (Gibco) were supplemented with 10% FBS (Gibco) before usage. Cells were used between passages #5 and #30. To obtain biological repeats, cells were split separately for at least two passages.
(§2) Cells were washed with PBS and 0.5 mL trypsin was added. Afterwards, cells were incubated for 5 min before adding 10 mL medium containing 10% FBS. Per well, 120 µL cell suspension (5 × 10^4 cells/mL) was seeded in transparent 96-well cell bind plates and incubated for 2 h (37 °C, 5% CO2). A dilution series (1:3) of test compounds was prepared in respective media containing 10% FBS and added (60 µL) to the prepared cell plate. Cells were incubated for a further 72 h (37 °C, 5% CO2). Next, 20 µL MTT (5 mg/mL in PBS) was added to each well and incubated for 2 h (37 °C, 5% CO2). The wells were emptied and 100 µL isopropanol/10 N HCl (1000:4) per well was added.
(§3) The plates were analyzed by measuring the absorbance at 570 nm (plate reader Infinite® 200 Pro, Tecan). After normalization of data to the respective solvent controls, the calculated percentage of growth inhibition was plotted using GraphPad Prism software (version 10.0.2).

A further series has as its system U-2 OS cells. In words: Mitochondrial superoxide formation (MitoSOX Red). The class given is cell-based, human. The settings on record: n = 6. The method, then: CYS was tested for its potential to induce oxidative stress in U-2 OS cells. Therefore, 120 µL of a cell suspension in McCoy’s (+10% FBS) containing 5 × 10^4 cells/mL were seeded into black 96-well imaging plate (BD Falcon). The plates were incubated for two days (37 °C, 5% CO2) until the cells reached approximately 70% confluence. Subsequently, the cells were washed with HBSS buffer, prior to adding CYS (20 µM) and the ROS inducer menadione (50 µM) as positive control, along with the staining solution (HBSS, calcium, magnesium, 5 µM MitoSOX red and 10 µg/mL Hoechst (Thermo)). To check for ROS protective properties, menadione (50 µM) was added directly to the staining solution. […] Afterwards, the cells were washed twice with HBSS. The cells were imaged using an automated fluorescence microscope (Celldiscoverer 7, Zeiss) (excitation: […]) to analyze the fluorescence intensity of the superoxide tracker MitoSOX red. The experiment was carried out with six replicates per condition. Quantification was done by high-content image analysis using the ZEN software (version 3.4, blue edition, Zeiss). Data presentation was done using GraphPad Prism (version 10.0.3) with ordinary one-way ANOVA including multiple comparisons to the control group for statistical analysis of the sample without ROS induction via menadione in the staining solution. Multiple unpaired t test was used to compare samples for ROS protective properties, which were incubated with menadione in the staining solution.

Series [2] is described as follows: Metabolic stability in mouse liver microsomes. The format is in vitro ADME. Particulars: pooled mouse liver microsomes, 0.5 mg/mL microsomes, NADPH. The method, then:
The metabolic stability of testosterone, verapamil and ketoconazole was determined in parallel to confirm the enzymatic activity of mouse liver microsomes. For combination experiments, cobicistat was added to the incubation mixture together with test compounds. […] Concentration of the remaining test compound at the different time points was analyzed by HPLC-MS/MS (Vanquish Flex coupled to a TSQ Altis Plus, Thermo Fisher, Dreieich, Germany) and used to determine half-life (t1/2).
Background: Liver microsomes are vesicles of endoplasmic reticulum, rich in cytochrome P450 enzymes.

A short description of series [3]: Metabolic stability in mouse hepatocytes. The class given is in vitro ADME. The method, then:
For the evaluation of combined phase I and phase II metabolic stability, the compound (1 μM) was incubated with 0.25 × 10^6 cells/mL of pooled mouse hepatocytes (Xenotech, Kansas City, USA). Cells were thawed in Leibovitz’s L-15 medium without phenol red (ThermoFisher Scientific, Waltham, USA). Briefly, cells were transferred into 50 mL of medium, followed by centrifugation at 55 g for 6 min. Supernatant was discarded, and the cell count was determined after gently resuspending the cell pellet in 1mL of medium. Hepatocytes were diluted to 0.5 × 10^6 cells/mL and incubated at 37 °C, 700 rpm for 10 min, to achieve the desired final cell count after addition of an equal volume of test compounds in medium, leading to a final test concentration of 1 µM at 1% DMSO. […] For the determination of metabolism in the presence of cobicistat, this drug was added together with test compounds in the desired concentration range. The metabolic stability of testosterone, verapamil, ketoconazole and 7-hydroxycoumarine were determined in parallel to confirm the enzymatic activity of mouse hepatocytes. […] Concentration of the remaining test compound at the different time points was analyzed by HPLC-MS/MS (Vanquish Flex coupled to a TSQ Altis Plus, Thermo Fisher, Dreieich, Germany) and used to determine half-life (t1/2). Intrinsic clearance was calculated as follows:2 CLintµL/min×10^6cells=Incubation volumeµL×ln(2)/Cells in incubation mixture[10^6]×t1/2
For metabolite identification studies, test compounds were incubated at 10 µM final concentration and samples were analyzed using HPLC-HRMS (Ultimate 3000 coupled to a Q Exactive Focus, Thermo Fisher, Dreieich, Germany). […] Blank samples using DMSO were run in parallel for background subtraction. Sample processing for metabolite identification was performed using Compound Discoverer 3.2 (Thermo Fisher, Dreieich, Germany). Metabolites were identified based on mass shifts and feasibility of the metabolic reaction, also in view of MS peak intensities over time.

Series [4] concerns the target T1, human DNA topoisomerase IIα (TOP2A) (Homo sapiens, UniProt P11388).
T1 construct: purchased Inspiralis
Put plainly: human topoisomerase II alpha decatenation assay. The settings on record: n = 3, read-out: IC50 against TOP2A. The class given is biochemical.
Description: Inhibition of topoisomerase activity was examined using the human topoisomerase II alpha decatenation assay kit (Inspiralis) as indicated by the manufacturer. Briefly, a compound dilution series was prepared in DMSO. Water, dilution buffer, assay buffer, plasmid and enzyme were mixed with the compound solution and incubated at 37 °C for 30 min. A positive control (100% activity) was prepared without the compound, and a negative control (0% activity) was prepared without the compound and the enzyme. The reaction was stopped by adding gSTEB-buffer and chloroform/isoamylalcohol (24:1 v/v). The samples were vortexed and centrifuged before running gel electrophoresis. The gel was stained with ethidium bromide and imaged using a Fusion Fx gel imager (Vilber Lourmat). Subsequent analysis was done using ImageJ and GraphPad Prism (Version 10.0.2).

In the next series the test system is HEK293 (human, kidney). Put plainly: MTT cytotoxicity HEK293. The class given is cell-based. Particulars: HEK293, MTT, 72 h, n = 3, read-out: IC50 HEK293 (human, kidney). The method, then:
as §1, §2, §3

A short description of a further series: Mouse plasma stability. The format is in vitro ADME. The settings on record: read-out: Mouse plasma t1/2.
For series [5], the system named is U2OS (human, osteosarcoma). Put plainly: MTT cytotoxicity U2OS. The class given is cell-based. The settings on record: 72 h, n = 3. The method, then:
as §2, §3

The nature of series [6]: Mouse plasma protein binding. Particulars: read-out: Mouse PPB (converted). The format is in vitro ADME.
The subject of another series is HepG2 (human, liver). Put plainly: MTT cytotoxicity HepG2. The format is cell-based. Particulars: 72 h, n = 3. As to the method:
as §1, §2, §3

Series [7] concerns HCV pseudoparticle (HCVpp; JFH1 genotype 2a, Con1 genotype 1b) entry into Huh-7.5. Put plainly: HCVpp cell entry assay. The settings on record: Hepatitis C virus, GETYPE1B|GETYPE2A, Huh7.5, 72 h, read-out: concentration of 50% entry inhibition.
The next series can be described thus: physchem. Particulars: zebrafish embryo incubation medium, aqueous buffer, kinetic from dmso stock.
The next series concerns HCT116 (human, colon). In words: MTT cytotoxicity HCT116. The settings on record: HCT-116, 72 h, n = 3. The format is cell-based. As to the method:
as §1, §2, §3

T1 sequence (P11388 whole entry): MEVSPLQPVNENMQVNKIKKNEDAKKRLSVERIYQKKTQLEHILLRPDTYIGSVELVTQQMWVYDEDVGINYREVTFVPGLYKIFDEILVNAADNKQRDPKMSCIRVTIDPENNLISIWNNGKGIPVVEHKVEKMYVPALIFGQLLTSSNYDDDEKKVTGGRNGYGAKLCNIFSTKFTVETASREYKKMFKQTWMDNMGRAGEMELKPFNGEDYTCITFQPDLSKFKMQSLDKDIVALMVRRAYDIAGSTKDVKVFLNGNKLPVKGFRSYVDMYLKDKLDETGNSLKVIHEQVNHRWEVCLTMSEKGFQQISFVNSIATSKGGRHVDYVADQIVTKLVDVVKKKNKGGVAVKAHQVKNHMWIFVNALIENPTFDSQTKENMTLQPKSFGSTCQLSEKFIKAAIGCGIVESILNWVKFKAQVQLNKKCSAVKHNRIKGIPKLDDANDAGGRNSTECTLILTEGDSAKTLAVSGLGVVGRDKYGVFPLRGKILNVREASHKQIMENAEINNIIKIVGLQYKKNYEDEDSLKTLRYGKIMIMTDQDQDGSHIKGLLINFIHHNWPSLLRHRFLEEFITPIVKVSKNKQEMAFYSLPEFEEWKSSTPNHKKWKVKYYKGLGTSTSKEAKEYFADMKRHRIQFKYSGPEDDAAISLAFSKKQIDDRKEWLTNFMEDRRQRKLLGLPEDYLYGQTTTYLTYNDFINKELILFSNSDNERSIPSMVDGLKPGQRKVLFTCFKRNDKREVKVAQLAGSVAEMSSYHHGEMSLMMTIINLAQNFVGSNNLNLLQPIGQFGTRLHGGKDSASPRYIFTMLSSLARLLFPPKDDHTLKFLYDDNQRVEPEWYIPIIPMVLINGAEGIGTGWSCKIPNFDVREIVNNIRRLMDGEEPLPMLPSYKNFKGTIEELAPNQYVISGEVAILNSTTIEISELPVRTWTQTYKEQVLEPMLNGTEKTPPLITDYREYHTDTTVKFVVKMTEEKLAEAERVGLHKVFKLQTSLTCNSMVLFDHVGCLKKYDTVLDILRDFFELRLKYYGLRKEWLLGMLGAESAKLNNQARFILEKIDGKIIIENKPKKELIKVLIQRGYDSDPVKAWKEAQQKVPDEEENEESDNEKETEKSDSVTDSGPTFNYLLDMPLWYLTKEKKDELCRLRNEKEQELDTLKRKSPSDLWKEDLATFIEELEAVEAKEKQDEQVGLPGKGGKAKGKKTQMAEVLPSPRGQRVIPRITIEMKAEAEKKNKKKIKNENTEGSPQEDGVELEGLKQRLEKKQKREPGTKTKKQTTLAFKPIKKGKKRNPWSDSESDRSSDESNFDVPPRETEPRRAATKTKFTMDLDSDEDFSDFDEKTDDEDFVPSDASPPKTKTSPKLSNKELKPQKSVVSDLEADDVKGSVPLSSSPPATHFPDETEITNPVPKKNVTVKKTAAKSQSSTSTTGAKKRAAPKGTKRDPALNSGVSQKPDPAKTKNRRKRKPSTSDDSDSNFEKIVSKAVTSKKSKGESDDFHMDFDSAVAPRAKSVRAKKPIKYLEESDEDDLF

As to `COc1c(NC(=O)C(=O)c2ccc(OCCN3CCOCC3)c3ccccc23)cc(C(C)(C)C)cc1NS(C)(=O)=O` [ITX5061], the safety in humans result in series [1] is listed as “safety in humans has been demonstrated”. Also, the “effect of SCARB1 suppression in mice” value in the series on SCARB1 was “increased beneficial HDL cholesterol levels and partially reduced atherosclerotic lesions”.
On to `C=CC1CC1(NC(=O)C12CC(NC(=O)c3ccc(C#N)cc3)(C1)C2)C(=O)Nc1ccc(C(=O)Nc2ccc(C(=O)Nc3ccc(C(=O)O)cc3)c(O)c2OC(C)C)cc1` (stereo not shown) [Cysto-180], for which the IC50 with HeLa (human, cervix) was above 37 µM; in series [4], 12.2 ± 0.63 µM; with HEK293 (human, kidney) it was above 20 µM; in [5] it was above 20 µM; with HepG2 (human, liver), above 20 µM; in [7], around 3.3 µM. Also, in the series on HCT116 (human, colon), the IC50 is above 20 µM. Further, the “basal superoxide radical levels vs DMSO control” value with U-2 OS cells (20 µM, MitoSOX Red, no menadione) was “decrease of superoxide radical levels”. Also, the “menadione-induced superoxide formation on co-treatment” value with U-2 OS cells (CYS 20 µM + menadione 50 µM) was “no significant increase of superoxide”. In [2] (read-out: MLM Clint), the microsomal CLint at 1 μM was below 11.6 µL/min/mg. The half-life at 1 µM is above 2 h in series [2] (read-out: MLM t1/2) and 0.683 ± 0.267 h in [3] (mouse, pooled mouse hepatocytes, 1 μM, 0.25 × 10^6 cells/mL, read-out: Mouse Hepatocytes t1/2). Moreover, in series [3] (metabolite identification, 10 µM, mouse hepatocytes), the major metabolic pathways entry is “amide bond hydrolysis and glucuronidation”. In series [3] (mouse, pooled mouse hepatocytes, 1 μM, 0.25 × 10^6 cells/mL), the hepatocyte CLint (as a rule, the capacity of the preparation to metabolise the compound, expressed as a volume cleared per time) at 1 µM was 26 µL/min/1e6 cells. Also, in the series “Mouse plasma stability”, the half-life was above 4 h. Further, in series [6], the fraction unbound is 0.041. In addition, in “physchem”, the concentration in solution (solubility) was 200 µM (≈ 159 µg/mL).
